Laboratory results reported in paper PMC5685509 (Journal of agricultural and food chemistry, 2017).
Structures can show the parent of a compound that is named as a salt.

What was measured:
quinone reductase = experiment: in vitro quinone reductase; format: cell-based, murine; settings: for CI, chemoprevention index (= IC50/CD): Hepa1c1c7 cells
Hepa1c1c7 cells = experiment: cytotoxicity in Hepa1c1c7 cells; format: cell-based, murine; settings: Mus musculus, Hepa-1c1c7, read-out: quinone reductase (QR) induction IC50
[1] = in vitro hydroxyl radical-scavenging activity bioassay; format: biochemical

CI, chemoprevention index (= IC50/CD) (quinone reductase)	Compound	quinone reductase-inducing activity (in words) (quinone reductase)	IC50 (Hepa1c1c7 cells) [µM]	hydroxyl radical-scavenging activity (in words) [1]
–	O=Cc1ccc(CO)o1 [Compound 14, hydroxymethylfurfural]	exhibited quinone reductase-inducing activity	–	–
>5.2	O=c1c(O[C@@H]2O[C@H](CO)[C@H](O)[C@H](O)[C@H]2O)c(-c2ccc(O)c(O)c2)oc2cc(O)cc(O)c12 [Compound 7, hyperoside]	exhibited quinone reductase-inducing activity	> 100	–
–	O=c1c(O[C@@H]2OC[C@@H](O)[C@H](O)[C@H]2O)c(-c2ccc(O)c(O)c2)oc2cc(O)cc(O)c12 [Compound 9, quercetin 3-O-β-D-xylopyranoside]	–	> 100	–
–	COC(=O)CC(O)(CC(=O)OC)C(=O)O [Compound 16, 1,5-dimethyl citrate]	showed activity in neither of these two assays	–	showed activity in neither of these two assays
–	CC(=O)OCc1ccc(C=O)o1 [Compound 15, acetyloxymethylfurfural]	showed activity in neither of these two assays	–	showed activity in neither of these two assays
–	O=C(O)c1cc(O)c(O)c(O)c1 [Compound 10, gallic acid]	–	55.3 ± 7.8	–
–	O=c1c(O[C@@H]2O[C@@H](CO)[C@H](O)[C@H]2O)c(-c2ccc(O)c(O)c2)oc2cc(O)cc(O)c12 [Compound 8, quercetin 3-O-α-L-arabinofuranoside]	–	> 100	–
5.8 ± 0.82	COC(=O)c1cc(O)c(O)c(O)c1 [Compound 11, gallic acid methyl ester]	exhibited quinone reductase-inducing activity	82.4 ± 11.9	–
21.7 ± 2.8	C[S@@+]([O-])CCCCN=C=S [L-sulforaphane, reference compound]	–	16.7 ± 1.9	–

Compound	CI, chemoprevention index (= IC50/CD) (quinone reductase)	quinone reductase-inducing activity (in words) (quinone reductase)	IC50 (Hepa1c1c7 cells) [µM]	hydroxyl radical-scavenging activity (in words) [1]
O=C(O)c1ccc(O)c(O)c1 [Compound 12, protocatechuic acid]	>24.4	exhibited quinone reductase-inducing activity	> 100	–
